# Where a SMILES comes first, the peptide text is derived from it.
# How the values were obtained:
# [1] = system: human cells; test: Cytokine response (multiplex xMAP immunoassay), cell type not given; format: cell-based; settings: 2 µM peptide, 24 h, control 1813 pg/mL
# Method: Acute monocytic leukemia THP-1 line (ATCC TIB-202) was cultured in complete RPMI 1640 medium (Invitrogen, Waltham, MA, USA) containing 10% FBS, 1× antibiotic-antimycotic solution (Invitrogen, Waltham, MA, USA), and 0.05 mM β-mercaptoethanol, in the CO2-incubator (5% CO2, 37 °C). THP-1 cells were differentiated into proinflammatory macrophages (MΦ1) according to the previously reported protocol. Primary peripheral blood mononuclear cells (PBMC) collected from a healthy donor were purchased from American Type Culture Collection (ATCC PCS-800-011), thawed, and seeded into a 96-well plate one day prior to the experiment at a density of 2 × 10^5 cells/well. […] 27 analytes were measured at a protein level by multiplex xMAP technology using the MILLIPLEX MAP Human Cytokine/Chemokine Magnetic Bead Immunology Panel kit (HCYTOMAG-60K-27, Merck, Darmstadt, Germany): eotaxin-1/CCL11, TGFα, GM-CSF, IFNα2, IFNγ, IL-10, IL-12p40, IL-12p70, IL-13, IL-15, sCD40L, IL-17A, IL-1RA, IL-1α, IL-9, IL-1β, IL-2, IL-3, IL-4, IL-5, IL-6, IL-7, IL-8/CXCL8, IP-10/CXCL10, RANTES/CCL5, TNFα, TNFβ. Multiplex-based assay read-out was performed using the MAGPIX system (Merck) with the xPONENT 4.2 software (Merck, Darmstadt, Germany) in accordance with the manufacturer’s instruction with overnight incubation of the samples with primary antibodies. […]
# [2] = system: E. coli BL21 (DE3) Star cell extract, coupled transcription/translation of EGFP; test: In vitro transcription/translation inhibition assay (cell-free EGFP synthesis); format: biochemical, Escherichia coli; settings: EGFP fluorescence, 2 h, 30 °C; at least two independent experiments in triplicate; read-out: IC50, inhibition of in vitro protein synthesis in the E. coli cell-free system
# Method: To investigate the effect of cathelicidins on the coupled transcription/translation process, the peptides were added to a cell-free protein synthesis (CFPS) reaction mix with a plasmid encoding enhanced green fluorescent protein (EGFP) variant (F64L, S65T, Q80R, F99S, M153T, and V163A) under control of the T7 promoter as described previously with some modifications. Briefly, the peptides were dissolved in 0.1% BSA in water. Bac7[1–22] was used as a positive control inhibitor. The fluorescence of the sample without inhibitor was set as the 100% value. The reaction proceeded for 2 h in 96-well v-bottom black polystyrene microplates in a plate shaker (30 °C, 1000 rpm). The fluorescence of the synthesized EGFP was measured with the microplate reader AF2200 (λExc = 488 nm, λEm = 510 nm; Eppendorf, Hamburg, Germany). The experimental data were obtained from at least two independent experiments performed in triplicate. Non-linear regression curves were generated using GraphPad Prism v.8.0.1 (GraphPad Software Inc., San Diego, CA, USA).
# [3] = system: panel of reference bacterial pathogens and antibiotic-resistant clinical isolates; settings: Mueller–Hinton broth supplemented with 0.9% NaCl
# Method: Bacterial test cultures were grown in the Mueller-Hinton broth (MH; Sigma, St. Louis, MO, USA) at 37 °C to mid-log phase and then diluted with the 2× MH medium supplemented with 1.8% NaCl or without salt so that to reach a final cell concentration of 10^6 CFU/mL. 50 µL of the obtained bacterial suspension were added to aliquots of 50 µL of the peptide solutions serially diluted with sterilized 0.1% bovine serum albumin (BSA) in 96-well flat-bottom polystyrene microplates (Eppendorf #0030730011, Hamburg, Germany). […] To verify MIC values, the respiratory activity of the bacteria was determined. Briefly, 20 µL of 0.1 mg/mL resazurin (a redox indicator; Sigma, St. Louis, MO, USA) was added to the wells after 24 h of incubation, and the plate was incubated for an additional two hours. The reduction of resazurin to resorufin was measured. […] The results were expressed as the median values determined based on at least three independent experiments performed in triplicate.
smiles,measurement,setting,value
CC[C@H](C)[C@H](NC(=O)[C@H](CCCNC(=N)N)NC(=O)[C@@H](N)CCCNC(=N)N)C(=O)N[C@@H](CCCNC(=N)N)C(=O)N[C@@H](CCCNC(=N)N)C(=O)N1CCC[C@H]1C(=O)N[C@@H](CCCNC(=N)N)C(=O)N[C@@H](CC(C)C)C(=O)N1CCC[C@H]1C(=O)N[C@@H](CCCNC(=N)N)C(=O)N1CCC[C@H]1C(=O)N[C@@H](CCCNC(=N)N)C(=O)N[C@H](C(=O)N1CCC[C@H]1C(=O)N[C@@H](CCCNC(=N)N)C(=O)N1CCC[C@H]1C(=O)N[C@@H](CCCNC(=N)N)C(=O)N[C@H](C(=O)N1CCC[C@H]1C(=O)N1CCC[C@H]1C(=O)N[C@@H](CCCNC(=N)N)C(=O)N[C@H](C(=O)N1CCC[C@H]1C(=O)N[C@@H](CCCNC(=N)N)C(=O)N1CCC[C@H]1C(=O)N[C@H](C(=O)N[C@@H](CC(C)C)C(=O)N1CCC[C@H]1C(=O)N1CCC[C@H]1C(=O)N1CCC[C@H]1C(=O)N[C@@H](CCCNC(=N)N)C(=O)N[C@H](C(=O)N1CCC[C@H]1C(=O)N[C@@H](Cc1ccccc1)C(=O)N1CCC[C@H]1C(=O)N[C@@H](CCCNC(=N)N)C(=O)N[C@@H](Cc1ccccc1)C(=O)N1CCC[C@H]1C(=O)N[C@@H](CCCNC(=N)N)C(N)=O)C(C)C)C(C)C)[C@@H](C)CC)[C@@H](C)CC)C(C)C [VicBac[1-39]] (H-RRIRRPRLPRPRVPRPRIPPRIPRPVLPPPRVPFPRFPR-NH2; N-terminus assumed),Production of IL-8/CXCL8,[1],1034 pg/mL
same,IC50,[2],500 nM
same,"MIC values, in most cases, against panel of reference pathogens and clinical isolates",[3],0.25 to 8 µM

# From paper PMC9146984, “A Novel Proline-Rich Cathelicidin from the Alpaca Vicugna pacos with Potency to Combat Antibiotic-Resistant Bacteria: Mechanism of Action and the Functional Role of the C-Terminal Region” (Membranes, 2022)
